Holding throughout (experiment): IA-DTB cysteine engagement
Common to all, as to assay type: binding
Conditions in all cases: 22Rv1 cells, 20 μM probe, 1 h, relative to DMSO

The target of test [1] is T1, DCAF1_C1113 (Homo sapiens, UniProt Q9Y4B6).
T1 construct: endogenous in cells; host or cells: 22Rv1
How it is done:
(§1) Sample preparation: Cells (adherent: 15 cm dishes, suspension: 2 million cells/mL) were treated with electrophilic probes in situ for indicated times and concentrations, washed with ice-cold PBS, and flash frozen in liquid nitrogen. Cell pellets were lysed by sonication (8 pulses, 40% power) in 500 μL ice-cold PBS supplemented with cOmplete protease inhibitors (1 tablet/10 mL of PBS). Whole cell lysates protein content was measured using a standard DC protein assay (Bio-Rad) and 500 μL (2 mg/mL protein content) were treated with 5 μL of 10 mM 1A-DTB (in DMSO) for 1 h at ambient temperature with occasional vortexing. Samples were methanol-chloroform precipitated with the addition of 500 μL ice-cold MeOH and 200 μL CHCl3, vortexed, and centrifuged (10 min, 10,000 g). Without disrupting the protein disk, both top and bottom layers were aspirated and the protein disk was washed with 1 mL ice-cold MeOH and centrifuged (10 min, 10,000 g). The pellets were allowed to air dry, and then re-suspended in 90 μL buffer (9 M urea, 10 mM DTT, 50 mM TEAB pH 8.5). Samples were reduced by heating at 65 C for 20 minutes and water bath sonicated as needed to resuspend the protein pellets, followed by alkylation via addition of 10 μL (500 mM) iodoacetamide and incubated at 37 C for 30 min with shaking. Samples were briefly centrifuged, and probe sonicated once more to ensure complete resuspension, and then diluted with 300 μL buffer (50 mM TEAB pH 8.5) to reach final concentration of 2 M urea. Trypsin (4 μL of 0.25 μg/μL in trypsin resuspension buffer with 25 mM CaCl2)) was added to each sample and digested at 37 C for 2 h to overnight. Digested samples were then diluted with 300 μL wash buffer (50 mM TEAB pH 8.5, 150 mM NaCl, 0.2% NP-40) containing streptavidin-agarose beads (50 μL of 50% slurry in wash buffer) and were rotated at room temperature for 2 hours. Enriched samples were pelleted by centrifugation (2000 g, 2 min) and transferred to BioSpin columns and washed (3×1 mL wash buffer, 3×1 mL PBS, 3×1 mL water). Enriched peptides were eluted by 300 μL 50% acetonitrile with 0.1% formic acid and eluate was evaporated to dryness via speedvac. IA-DTB labeled and enriched peptides were resuspended in 100 μL EPPS buffer (200 mM, pH 8.0) with 30% acetonitrile, vortexed, and water bath sonicated. Samples were TMT labeled with 3 μL of corresponding TMT tag (5 mg tag resuspended in 256 μL acetonitrile), vortexed, and incubated at room temperature for 1 hour. TMT labeling was quenched with the addition of hydroxylamine (5 μL 5% solution in H2O) and incubated for 15 minutes at room temperature. Samples were then acidified with 5 μL formic acid, combined and dried using a SpeedVac. Samples were desalted via Sep-Pak and then high pH fractionated.
(§2) Data processing: Cysteine engagement ratios (probe vs DMSO) were calculated for each peptide-spectra match by dividing each TMT reporter ion intensity by the average intensity for the channels corresponding to DMSO treatment. Peptide-spectra matches were then grouped based on protein ID and residue number (e.g., PSME1 C22), excluding peptides with summed reporter ion intensities for the DMSO channels <10,000, coefficient of variation for DMSO channels >0.5, and non-tryptic peptide sequences. TMT reporter ion intensities were normalized to the median summed signal intensity across channels.
(§3) Filtering of cysteine data: Replicates were combined based on cell line and treatment condition (probe, concentration, duration) by averaging cysteine engagement ratios across all experiments.

For test [2], the target named is T2, GNPAT_C122 (Homo sapiens, UniProt O15228).
T2 construct: endogenous in cells; host or cells: 22Rv1
T2 sequence (O15228 1-680): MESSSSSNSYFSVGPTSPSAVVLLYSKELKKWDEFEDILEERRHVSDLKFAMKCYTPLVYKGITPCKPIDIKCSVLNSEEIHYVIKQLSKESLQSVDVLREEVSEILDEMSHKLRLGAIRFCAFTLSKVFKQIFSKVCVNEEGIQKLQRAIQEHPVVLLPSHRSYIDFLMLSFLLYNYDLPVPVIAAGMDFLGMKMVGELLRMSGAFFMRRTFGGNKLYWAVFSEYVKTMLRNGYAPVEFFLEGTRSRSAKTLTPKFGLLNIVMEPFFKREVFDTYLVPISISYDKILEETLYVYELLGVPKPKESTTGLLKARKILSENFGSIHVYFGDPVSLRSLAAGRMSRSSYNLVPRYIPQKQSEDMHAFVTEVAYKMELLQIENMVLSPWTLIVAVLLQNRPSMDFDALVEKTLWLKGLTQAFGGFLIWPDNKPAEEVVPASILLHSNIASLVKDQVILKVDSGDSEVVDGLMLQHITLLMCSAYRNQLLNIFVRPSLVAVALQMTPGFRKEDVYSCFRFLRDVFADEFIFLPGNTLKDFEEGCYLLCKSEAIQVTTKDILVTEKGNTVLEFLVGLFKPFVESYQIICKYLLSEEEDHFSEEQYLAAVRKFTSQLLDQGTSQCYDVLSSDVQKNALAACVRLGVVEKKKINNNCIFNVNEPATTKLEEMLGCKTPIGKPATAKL
How it is done: as §1, §2, §3

Test [3] addresses T3, LAPTM4A_C20 (Homo sapiens, UniProt Q15012).
T3 construct: endogenous in cells; host or cells: 22Rv1
The procedure:
as §1, §2, §3

The target of test [4] is T4, NT5DC1_C119 (Homo sapiens, UniProt Q5TFE4).
T4 construct: endogenous in cells; host or cells: 22Rv1
T4 sequence (Q5TFE4 1-455): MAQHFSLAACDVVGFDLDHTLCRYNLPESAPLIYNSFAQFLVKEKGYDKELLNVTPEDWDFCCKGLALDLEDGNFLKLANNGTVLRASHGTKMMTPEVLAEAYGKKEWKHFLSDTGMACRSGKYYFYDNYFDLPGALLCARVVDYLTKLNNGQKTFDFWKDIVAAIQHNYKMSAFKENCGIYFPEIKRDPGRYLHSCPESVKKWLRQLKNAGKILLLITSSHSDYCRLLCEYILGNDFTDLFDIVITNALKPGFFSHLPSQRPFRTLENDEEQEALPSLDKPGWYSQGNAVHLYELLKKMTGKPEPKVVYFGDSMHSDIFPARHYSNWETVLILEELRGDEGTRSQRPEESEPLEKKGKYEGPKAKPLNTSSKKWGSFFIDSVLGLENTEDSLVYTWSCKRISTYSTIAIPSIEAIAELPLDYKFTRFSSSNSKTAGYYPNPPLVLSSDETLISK
How it is done: as §1, §2, §3

T1 sequence (Q9Y4B6 whole entry): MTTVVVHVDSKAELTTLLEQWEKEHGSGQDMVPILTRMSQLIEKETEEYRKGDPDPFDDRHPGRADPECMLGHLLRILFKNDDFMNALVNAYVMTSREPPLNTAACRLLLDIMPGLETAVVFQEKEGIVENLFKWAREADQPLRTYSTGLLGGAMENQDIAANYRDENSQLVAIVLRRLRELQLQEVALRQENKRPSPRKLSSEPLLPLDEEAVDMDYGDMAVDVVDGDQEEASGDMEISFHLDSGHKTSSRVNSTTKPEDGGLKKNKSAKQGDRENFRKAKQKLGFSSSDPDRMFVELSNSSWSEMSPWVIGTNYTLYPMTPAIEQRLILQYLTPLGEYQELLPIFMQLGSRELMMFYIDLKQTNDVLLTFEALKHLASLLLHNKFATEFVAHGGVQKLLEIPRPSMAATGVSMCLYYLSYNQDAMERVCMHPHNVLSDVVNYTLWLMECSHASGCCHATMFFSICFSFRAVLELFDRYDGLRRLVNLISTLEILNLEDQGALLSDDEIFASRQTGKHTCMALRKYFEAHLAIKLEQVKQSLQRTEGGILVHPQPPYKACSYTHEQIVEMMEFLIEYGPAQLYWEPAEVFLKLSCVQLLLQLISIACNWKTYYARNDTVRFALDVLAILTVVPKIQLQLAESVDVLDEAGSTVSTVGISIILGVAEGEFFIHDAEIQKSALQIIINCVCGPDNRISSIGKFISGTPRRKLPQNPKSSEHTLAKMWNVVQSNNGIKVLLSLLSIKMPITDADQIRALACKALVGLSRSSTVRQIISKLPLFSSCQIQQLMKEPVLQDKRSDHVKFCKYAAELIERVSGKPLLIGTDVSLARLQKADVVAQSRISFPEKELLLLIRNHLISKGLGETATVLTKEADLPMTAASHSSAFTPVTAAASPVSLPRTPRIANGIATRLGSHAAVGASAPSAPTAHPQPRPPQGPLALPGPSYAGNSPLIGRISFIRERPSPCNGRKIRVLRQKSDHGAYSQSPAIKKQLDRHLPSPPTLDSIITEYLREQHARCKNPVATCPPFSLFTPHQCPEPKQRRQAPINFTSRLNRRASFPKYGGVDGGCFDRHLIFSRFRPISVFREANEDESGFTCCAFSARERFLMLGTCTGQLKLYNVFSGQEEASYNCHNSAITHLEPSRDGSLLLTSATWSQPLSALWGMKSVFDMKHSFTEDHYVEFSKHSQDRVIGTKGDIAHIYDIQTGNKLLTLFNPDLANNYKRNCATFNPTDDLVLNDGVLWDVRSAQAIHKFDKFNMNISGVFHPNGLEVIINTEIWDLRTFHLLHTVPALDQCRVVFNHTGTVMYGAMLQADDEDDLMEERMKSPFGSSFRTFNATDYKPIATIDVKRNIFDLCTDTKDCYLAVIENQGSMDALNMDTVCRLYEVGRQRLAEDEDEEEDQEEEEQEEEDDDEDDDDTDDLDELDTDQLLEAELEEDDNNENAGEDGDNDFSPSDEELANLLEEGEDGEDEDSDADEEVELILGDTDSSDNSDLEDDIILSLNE

For `C=CC(=O)N1C[C@H](c2ccc(Br)cc2)[C@H]1C(=O)Nc1cccc2cccnc12` [MY-3A, (2S,3S)-1-acryloyl-3-(4-bromophenyl)-N-(quinolin-8-yl)azetidine-2-carboxamide], the “% engagement DCAF1_C1113” value in test [1] is reported as −1.5%. Besides, the “% engagement GNPAT_C122” value in test [2] is recorded as 35.5%. Also, the “% engagement LAPTM4A_C20” value in test [3] is 49.5%. Further, in test [4], the “% engagement NT5DC1_C119” value stood at 93.5%.
The like results for `C=CC(=O)N1C[C@@H](c2ccc(Br)cc2)[C@H]1C(=O)Nc1cccc2cccnc12` [MY-1A, (2S,3R)-1-acryloyl-3-(4-bromophenyl)-N-(quinolin-8-yl)azetidine-2-carboxamide] were, in that order, −18%, 70.5%, 69% and 49%.
On the same counts, the results for `C=CC(=O)N1C[C@H](c2ccc(Br)cc2)[C@@H]1C(=O)Nc1cccc2cccnc12` [MY-1B, (2R,3S)-1-acryloyl-3-(4-bromophenyl)-N-(quinolin-8-yl)azetidine-2-carboxamide] are 68.5%, 74.5%, 55% and 63.25%.
As for `C=CC(=O)N1C[C@H](c2ccc(Br)cc2)[C@H]1C(=O)Nc1cccc2cccnc12` [MY-3B, (2S,3S)-1-acryloyl-3-(4-bromophenyl)-N-(quinolin-8-yl)azetidine-2-carboxamide], the “% engagement DCAF1_C1113” value in test [1] stood at 26.5%. Further, the “% engagement GNPAT_C122” value in test [2] amounted to 51.5%. In addition, the “% engagement LAPTM4A_C20” value in test [3] came out at 70.5%. Further, in test [4], the “% engagement NT5DC1_C119” value was 79.5%.
